Activity calls are given as the source filed them. The rule behind the calls is not given here.
Assays:
Rhodococcus fascians [1] = test: Antimicrobial activity against Corynebacterium fascians NCPPB 2551 at 0.0005 molarity/paper disk; assay type: functional, Rhodococcoides fascians
Rhodococcus fascians [2] = test: Antimicrobial activity against Corynebacterium fascians NCPPB 2551 at 0.01 molarity/paper disk; assay type: functional, Rhodococcoides fascians
Rhodococcus fascians [3] = test: Antimicrobial activity against Corynebacterium fascians NCPPB 2551 at 0.0001 molarity/paper disk; assay type: functional, Rhodococcoides fascians
Rhodococcus fascians [4] = test: Antimicrobial activity against Corynebacterium fascians NCPPB 2551 at 0.001 molarity/paper disk; assay type: functional, Rhodococcoides fascians
[5] = tested on: Curtobacterium flaccumfaciens; test: Antimicrobial activity against Corynebacterium flaccumfaciens NCPPB 559 after 48 to 72 hrs by paper disk method; assay type: functional, organism-based
[6] = tested on: Pseudomonas coronafaciens; test: Antimicrobial activity against Pseudomonas coronafaciens NCPPB 2481 after 48 to 72 hrs by paper disk method; assay type: functional, organism-based
[7] = tested on: Xanthomonas euvesicatoria; test: Antimicrobial activity against Xanthomonas campestris pv. vesicatoria NCPPB 1616 after 48 to 72 hrs by paper disk method; assay type: functional, organism-based
Pseudomonas cichorii = test: Antimicrobial activity against Pseudomonas cichorii NCPPB 2379 after 48 to 72 hrs by paper disk method; assay type: functional, organism-based
[8] = tested on: Agrobacterium tumefaciens; test: Antimicrobial activity against Agrobacterium tumefaciens ITM 71 after 48 to 72 hrs by paper disk method; assay type: functional, organism-based
Pseudomonas syringae [9] = test: Antimicrobial activity against Pseudomonas syringae pv. tomato NCPPB 2563 after 48 to 72 hrs by paper disk method; assay type: functional, organism-based
Pseudomonas syringae [10] = test: Antimicrobial activity against Pseudomonas syringae pv. maculicola NCPPB 1777 after 48 to 72 hrs by paper disk method; assay type: functional, organism-based
[11] = tested on: Pectobacterium carotovorum; test: Antimicrobial activity against Erwinia carotovora subsp. carotovora NCPPB ITM 180 after 48 to 72 hrs by paper disk method; assay type: functional, organism-based
Pseudomonas savastanoi = test: Antimicrobial activity against Pseudomonas savastanoi ITM 519 after 48 to 72 hrs by paper disk method; assay type: functional, organism-based
Pseudomonas syringae [12] = test: Antimicrobial activity against Pseudomonas syringae pv. tabaci NCPPB 2730 after 48 to 72 hrs by paper disk method; assay type: functional, organism-based; settings: Pseudomonas amygdali pv. tabaci
Priestia megaterium = test: Antimicrobial activity against Bacillus megaterium ITM 80 after 48 to 72 hrs by paper disk method; assay type: functional, organism-based
Pseudomonas = test: Antimicrobial activity against Pseudomonas ITM 311 after 48 to 72 hrs by paper disk method; assay type: functional, organism-based
Pseudomonas syringae [13] = test: Antimicrobial activity against Pseudomonas syringae pv. syringae NCPPB ITM24 after 48 to 72 hrs by paper disk method; assay type: functional, organism-based

SMILES	inhibition zone (IZ) (Rhodococcus fascians [1])	inhibition zone (IZ) (Rhodococcus fascians [2])	inhibition zone (IZ) (Rhodococcus fascians [3])	inhibition zone (IZ) (Rhodococcus fascians [4])	Activity [5]	Activity [6]	Activity [7]	Activity (Pseudomonas cichorii)	Activity [8]	Activity (Pseudomonas syringae [9])	Activity (Pseudomonas syringae [10])	Activity [11]	Activity (Pseudomonas savastanoi)	Activity (Pseudomonas syringae [12])	Activity (Priestia megaterium)	Activity (Pseudomonas)	Activity (Pseudomonas syringae [13])
c1cc2c3c(c1)-c1cc4c(cc1CN3CC2)OCO4 [ANHYDROLYCORINE]	15 mm	25 mm	0 mm	25 mm													
Oc1ccc2c3c1c1cc4c(cc1c[n+]3CC2)OCO4.[Cl-]	0 mm	10 mm	0 mm	7 mm													
O=c1c2cc3c(cc2c2cccc4c2n1CC4)OCO3	9 mm	25 mm	0 mm	12 mm													
Oc1cc2c3c(c1)c1cc4c(cc1c[n+]3CC2)OCO4.[Cl-]	0 mm	0 mm	0 mm	0 mm													
O[C@H]1[C@H]2c3cc4c(cc3CN3CCC(=C[C@@H]1O)[C@H]23)OCO4 [LYCORINE]	0 mm	0 mm	0 mm	0 mm													
[Cl-].c1cc2c3c(c1)c1cc4c(cc1c[n+]3CC2)OCO4 [ANHYDROLYCORINIUM CHLORIDE]	16 mm	30 mm	10 mm	24 mm	Active	Active	Active	Active	Active	Active	Active	Active	Active	Active	Active	inactive	Active
[O-]c1cc2c3c(c1)c1cc4c(cc1c[n+]3CC2)OCO4 [UNGEREMINE]	0 mm	15 mm	0 mm	14 mm	Active	Active	Active	Active	Active	Active	Active	Active	Active	Active	Active	inactive	Active
O=C1N[C@@H]2C(=C[C@H](O)[C@@H](O)[C@H]2O)c2cc3c(c(O)c21)OCO3 [NARCICLASINE]	0 mm	0 mm	0 mm	0 mm													

From ChEMBL document CHEMBL1151658, “Degradation of Lycorine by Pseudomonas Species Strain ITM 311” (1985)
